IC50 data for 31 compounds are collected here from patent US12084420B2, “Indoline compounds for inhibiting KIF18A” (Volastra Therapeutics, Inc., priority 2021, dated 2024).

The structures appear in SMILES notation.

Sequence of hKIF18A (1-374) (Q8NI77 whole entry, looked up): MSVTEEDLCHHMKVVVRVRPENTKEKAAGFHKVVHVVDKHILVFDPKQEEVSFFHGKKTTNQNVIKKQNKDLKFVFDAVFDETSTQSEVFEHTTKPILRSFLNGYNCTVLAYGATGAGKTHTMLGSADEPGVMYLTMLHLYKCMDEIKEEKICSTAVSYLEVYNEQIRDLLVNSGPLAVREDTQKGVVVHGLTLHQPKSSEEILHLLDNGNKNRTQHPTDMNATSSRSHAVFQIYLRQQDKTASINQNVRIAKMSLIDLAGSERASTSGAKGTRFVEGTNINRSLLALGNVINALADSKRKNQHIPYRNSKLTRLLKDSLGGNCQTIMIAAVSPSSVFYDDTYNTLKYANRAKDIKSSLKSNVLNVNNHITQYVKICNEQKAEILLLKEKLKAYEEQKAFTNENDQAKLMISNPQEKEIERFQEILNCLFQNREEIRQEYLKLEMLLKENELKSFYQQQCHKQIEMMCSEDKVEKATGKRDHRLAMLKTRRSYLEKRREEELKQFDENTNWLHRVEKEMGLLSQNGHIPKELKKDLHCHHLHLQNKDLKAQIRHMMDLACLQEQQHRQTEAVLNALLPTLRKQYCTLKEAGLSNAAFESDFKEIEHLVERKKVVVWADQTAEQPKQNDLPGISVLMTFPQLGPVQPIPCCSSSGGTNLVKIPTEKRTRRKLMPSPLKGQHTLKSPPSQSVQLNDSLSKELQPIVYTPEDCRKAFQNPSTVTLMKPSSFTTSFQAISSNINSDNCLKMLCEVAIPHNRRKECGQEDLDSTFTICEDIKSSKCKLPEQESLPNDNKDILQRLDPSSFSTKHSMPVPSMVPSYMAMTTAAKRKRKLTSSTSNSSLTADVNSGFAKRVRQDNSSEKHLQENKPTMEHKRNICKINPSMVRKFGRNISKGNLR
Sequence of hKIF18A (1-374) (Q2XVP4 whole entry partner, looked up): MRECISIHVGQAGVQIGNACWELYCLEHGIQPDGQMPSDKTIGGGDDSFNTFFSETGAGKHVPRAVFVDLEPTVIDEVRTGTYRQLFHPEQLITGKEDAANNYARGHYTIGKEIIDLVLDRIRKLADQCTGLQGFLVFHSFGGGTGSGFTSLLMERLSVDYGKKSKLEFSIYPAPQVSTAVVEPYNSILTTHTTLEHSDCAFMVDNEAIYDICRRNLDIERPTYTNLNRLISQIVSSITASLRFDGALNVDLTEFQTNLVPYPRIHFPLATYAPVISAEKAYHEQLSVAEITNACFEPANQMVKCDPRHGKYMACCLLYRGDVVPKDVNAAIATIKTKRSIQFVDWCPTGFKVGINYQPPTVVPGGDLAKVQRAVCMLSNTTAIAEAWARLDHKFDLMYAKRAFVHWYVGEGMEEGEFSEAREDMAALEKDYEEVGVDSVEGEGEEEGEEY
Sequence of hKIF18A (1-374) (P02554 whole entry partner, looked up): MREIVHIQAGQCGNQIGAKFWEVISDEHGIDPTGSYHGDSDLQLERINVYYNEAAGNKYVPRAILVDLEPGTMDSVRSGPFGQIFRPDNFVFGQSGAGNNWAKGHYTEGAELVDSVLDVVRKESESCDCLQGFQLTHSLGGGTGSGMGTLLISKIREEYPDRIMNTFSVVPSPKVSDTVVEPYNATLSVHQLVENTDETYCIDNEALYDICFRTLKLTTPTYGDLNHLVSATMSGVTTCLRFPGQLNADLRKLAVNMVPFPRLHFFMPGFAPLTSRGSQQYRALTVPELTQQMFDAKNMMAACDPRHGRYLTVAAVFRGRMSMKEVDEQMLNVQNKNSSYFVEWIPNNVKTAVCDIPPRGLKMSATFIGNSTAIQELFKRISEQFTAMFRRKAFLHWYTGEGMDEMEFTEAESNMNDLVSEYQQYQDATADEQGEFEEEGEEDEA

This assay concerns the target hKIF18A (1-374) (Homo sapiens (Human), UniProt Q8NI77). As to the kind of experiment: Inhibition of KIF18A microtubule-dependent ATPase activity (ADP-Glo). The conditions noted are these: KIF18A microtubule-dependent ATPase activity, biochemical assay. On the technique in general: ADP-Glo first removes unused ATP, then detects ADP through luciferase.
Method: Biological Assays Inhibition of KIF18A Microtubule-Dependent ATPase Activity:
Test compounds were plated in a 3× dilution scheme in a 384-well plate. Assay buffer: 80 mM PIPES (pH 6.9), 1 mM MgCl2, 75 mM KCl, 1 mM EGTA, 1 mM DTT, 0.01% BSA, 0.005% Tween-20, 1 μM Taxol in H2O. […] After incubation at room temperature for 30 min, 2.5 μL of microtubule mix was added [0.2 mg/mL pre-formed microtubules, 2.0 mM ATP in assay buffer], the plate was centrifuged for 30 s and then incubated at 28° C. for 60 min. 5 μL of Promega® ADP-Glo Max R1 was added, the plate was centrifuged for 30 s, and the mixture incubated for 4 h at room temperature. 10 μL of Promega® ADP-Glo Max R2 was added, the plate centrifuged for 30 s, and incubated for 60 min at room temperature. Luminescence was measured with an Envision plate reader, and % Inhibition was calculated for each well as: ([max−min]−[test−min])/[max−min]. IC50 values were calculated from concentration vs. % Inhibition data via a four-parameter variable slope model.
One may read the IC50 as the concentration that inhibits the measured activity by half. Read a high IC50 as weaker potency. With `CS(=O)(=O)Nc1ccc2c(c1)C1(CCC3(CC3)CC1)CN2C(=O)c1cccc(S(=O)(=O)NC2(C#N)CC2)c1` [Compound 264, N-(1-cyanocyclopropyl)-3-(5″- (methylsulfonamido)dispiro[cyclopropane-1,1′-cyclohexane-4′,3″-indoline]-1″-carbonyl)benzenesulfonamide], half-maximal inhibition (IC50) required 35 nM. This lies in the double-digit nanomolar range.
In turn, `CC(C)(C)NS(=O)(=O)c1cc(C(=O)N2CC3(CCCCC3)c3cc(NS(C)(=O)=O)ccc32)ccc1F` [Compound 96, N-(tert-butyl)-2-fluoro-5-(5′-(methylsulfonamido)spiro[cyclohexane-1,3′-indoline]-1′-carbonyl)benzenesulfonamide] returned an IC50 of 100 nM.
As for `CC1CCN(S(=O)(=O)c2cccc(C(=O)N3CC4(CCCCC4)c4cc(NS(C)(=O)=O)ccc43)c2)C1` (stereo not shown) [Compound 71, N-(1′-(3-((3-methylpyrrolidin-1-yl)sulfonyl)benzoyl)spiro[cyclohexane-1,3′-indolin]-5′-yl)methanesulfonamide], the figure is 86 nM; as for `CC1(F)CCC2(CC1)CN(C(=O)c1cccc(S(=O)(=O)NC(C)(C)C)c1)c1ccc(NS(C)(=O)=O)cc12` (stereo not shown) [Compound 329, N-(tert-butyl)-3-(4-fluoro-4-methyl-5′-(methylsulfonamido)spiro[cyclohexane-1,3′-indoline]-1′-carbonyl)benzenesulfonamide], 72 nM.
Compound `CC(C)(C)CC(O)c1cccc(C(=O)N2CC3(CCC4(CC4)CC3)c3cc(NS(C)(=O)=O)ccc32)c1` (stereo not shown) [Compound 357, N-(1″-(3-(1-hydroxy-3,3-dimethylbutyl)benzoyl)dispiro[cyclopropane-1,1′-cyclohexane-4′,3″-indolin]-5″-yl)methanesulfonamide] returned a concentration for half-maximal inhibition (IC50) of 11 nM.
For the compound `CCS(=O)(=O)Nc1ccc2c(c1)C1(CCC(F)(F)CC1)CN2C(=O)c1cccc(S(=O)(=O)NC(C)(C)C)c1` [Compound 327, N-(tert-butyl)-3-(5′-(ethylsulfonamido)-4,4-difluorospiro[cyclohexane-1,3′-indoline]-1′-carbonyl)benzenesulfonamide], the IC50 stood at 44 nM.
As for `CCC(CO)NS(=O)(=O)c1cccc(C(=O)N2CC3(CCC4(CC4)CC3)c3cc(NS(C)(=O)=O)ccc32)c1` (stereo not shown) [Compound 208, N-(1-hydroxybutan-2-yl)-3-(5″- (methylsulfonamido)dispiro[cyclopropane-1,1′-cyclohexane-4′,3″-indoline]-1″-carbonyl)benzenesulfonamide], the figure is 64 nM; as for `CCOC(=O)Nc1ccc2c(c1)C1(CCCCC1)CN2C(=O)c1cccc(S(=O)(=O)N2CCCCC2)c1` [Compound 141, ethyl (1′-(3-(piperidin-1-ylsulfonyl)benzoyl)spiro[cyclohexane-1,3′-indolin]-5′-yl)carbamate], 1100 nM.
In the case of `CS(=O)(=O)Nc1ccc2c(c1)C1(CCCCC1)CN2C(=O)c1cccc(S(=N)(=O)C2CCCC2)c1` (stereo not shown) [Compound 49, N-(1′-(3-(cyclopentanesulfonamidoyl)benzoyl)spiro[cyclohexane-1,3′-indolin]-5′-yl)methanesulfonamide], half-maximal inhibition (IC50) required 130 nM.
As for `CS(=O)(=O)Nc1ccc2c(c1)C1(CCC3(CC3)CC1)CN2C(=O)c1cccc(C(=O)C2CCCC2)c1` [Compound 164, N-(1″-(3-(cyclopentanecarbonyl)benzoyl)dispiro[cyclopropane-1,1′-cyclohexane-4′,3″- indolin]-5″-yl)methanesulfonamide], the figure is 120 nM; as for `O=C(c1cccc(S(=O)(=O)N2CCCCC2)c1)N1CC2(CCCCC2)c2cc(O)ccc21` [Compound 166, (5′-hydroxyspiro[cyclohexane-1,3′-indolin]-1′-yl)(3-(piperidin-1-ylsulfonyl)phenyl)methanone], 1100 nM; as for `CC(C)(C)NS(=O)(=O)c1ccc(C(=O)N2CC3(CCCCC3)c3cc(NS(C)(=O)=O)ccc32)o1` [Compound 149, N-(tert-butyl)-5-(5′-(methylsulfonamido)spiro[cyclohexane-1,3′-indoline]-1′-carbonyl)furan-2-sulfonamide], 78 nM.
For the compound `CC(C)(C)NS(=O)(=O)c1csc(C(=O)N2CC3(CCC4(CC4)CC3)c3cc(NS(C)(=O)=O)ccc32)c1` [Compound 268, N-(tert-butyl)-5-(5″- (methylsulfonamido)dispiro[cyclopropane-1,1′-cyclohexane-4′,3″-indoline]-1″-carbonyl)thiophene-3-sulfonamide], half-maximal inhibition (IC50) was put at 77 nM.
As for `CS(=O)(=O)Nc1ccc2c(c1)C1(CCC3(CC3)CC1)CN2C(=O)c1cccc(S(=O)(=O)NC2CCCC2)c1` [Compound 176, N-cyclopentyl-3-(5″- (methylsulfonamido)dispiro[cyclopropane-1,1″-cyclohexane-4′,3″-indoline]-1″-carbonyl)benzenesulfonamide], the figure is 5.6 nM.
Under `CC(c1cccc(C(=O)N2CC3(CCC4(CC4)CC3)c3cc(NS(C)(=O)=O)ccc32)c1)N1CCC(F)(F)CC1` (stereo not shown) [Compound 341, N-(1″-(3-(1-(4,4-difluoropiperidin-1-yl)ethyl)benzoyl)dispiro[cyclopropane-1,1′-cyclohexane-4′,3″-indolin]-5″-yl)methanesulfonamide] stands 25 nM.
Compound `CS(=O)(=O)Nc1ccc2c(c1)C1(CCC3(CC3)CC1)CN2C(=O)c1cccc(C(F)(F)C2CCCC2)c1` [Compound 306, N-(1″-(3-(cyclopentyldifluoromethyl)benzoyl)dispiro[cyclopropane-1,1′-cyclohexane-4′,3″-indolin]-5″- yl)methanesulfonamide] yielded an IC50 of 33 nM. The IC50 values of the last two compounds are within 1.5-fold of each other.
Under `CC(C)(C)NS(=O)(=O)c1cccc(C(=O)N2CC3(CCC4(CC4)CC3)c3cc(C(O)C(F)(F)F)ccc32)c1` (single isomer, unassigned) [Compound 338a] stands 48 nM.
`CC(O)(c1cccc(C(=O)N2CC3(CCC4(CC4)CC3)c3cc(NS(C)(=O)=O)ccc32)c1)C1CCCC1` (stereo not shown) [Compound 331, N-(1″-(3-(1-cyclopentyl-1-hydroxyethyl)benzoyl)dispiro[cyclopropane-1,1′-cyclohexane-4′,3″-indolin]-5″-yl)methanesulfonamide] returned an IC50 of 35 nM.
Under `CS(=O)(=O)Nc1ccc2c(c1)C1(CCC3(CC3)CC1)CN2C(=O)c1ccnc([C@@H](O)C2CCCC2)c1` (single isomer, unassigned) [Compound 316a] stands 21 nM.
Under `C=C1CC(NS(=O)(=O)c2cccc(C(=O)N3CC4(CCC5(CC5)CC4)c4cc(NS(C)(=O)=O)ccc43)c2)C1` [Compound 190, N-(3-methylenecyclobutyl)-3-(5″- (methylsulfonamido)dispiro[cyclopropane-1,1′-cyclohexane-4′,3″-indoline]-1″-carbonyl)benzenesulfonamide] stands 4.8 nM.
Under `CC(C)(C)[C@H](O)c1ccc(C(=O)N2CC3(CCC4(CC4)CC3)c3cc(NS(=O)(=O)CCO)ccc32)o1` (single isomer, unassigned) [Compound 371b] stands 40 nM; under `CS(=O)(=O)Nc1ccc2c(c1)C1(CCC3(CC3)CC1)CN2C(=O)c1cccc(S(=N)(=O)C2CCCC2)c1` (single isomer, unassigned) [Compound 287a], 34 nM; under `CS(=O)(=O)Nc1ccc2c(c1)C1(CCC3(CC3)CC1)CN2C(=O)c1cccc(S(=O)(=O)N2CC[C@H](F)C2)c1` [(S)-Compound 239, (S)-N-(1″-(3-((3-fluoropyrrolidin-1-yl)sulfonyl)benzoyl)dispiro[cyclopropane-1,1′-cyclohexane-4′,3″-indolin]-5″- yl)methanesulfonamide], 15 nM.
`CC1CCN(S(=O)(=O)c2cccc(C(=O)N3CC4(CCC5(CC5)CC4)c4cc(NS(C)(=O)=O)ccc43)c2)C1` (stereo not shown) [Compound 249, N-(1″-(3-((3-methylpyrrolidin-1-yl)sulfonyl)benzoyl)dispiro[cyclopropane-1,1′-cyclohexane-4′,3″-indolin]-5″- yl)methanesulfonamide] had an IC50 of 9 nM.
On to `CC1(C)OCC1NS(=O)(=O)c1cccc(C(=O)N2CC3(CCC4(CC4)CC3)c3cc(NS(C)(=O)=O)ccc32)c1` (stereo not shown) [Compound 188, N-(2,2-dimethyloxetan-3-yl)-3-(5″- (methylsulfonamido)dispiro[cyclopropane-1,1′-cyclohexane-4′,3″-indoline]-1″-carbonyl)benzenesulfonamide], for which it took 75 nM to reach half-maximal inhibition (IC50).
Under `CS(=O)(=O)Nc1ccc2c(c1)C1(CCCCC1)CN2C(=O)c1cccc(S(=O)(=O)N2CCCC2)c1` [Compound 241, N-(1′-(3-(pyrrolidin-1-ylsulfonyl)benzoyl)spiro[cyclohexane-1,3′-indolin]-5′-yl)methanesulfonamide] stands 180 nM; under `C[C@H](c1cccc(C(=O)N2CC3(CCC4(CC4)CC3)c3cc(NS(C)(=O)=O)ccc32)c1)N1CCC(F)(F)CC1` (single isomer, unassigned) [Compound 341b], 24 nM; under `CS(=O)(=O)Nc1ccc2c(c1)C1(CCC3(CC3)CC1)CN2C(=O)c1cccc(C(O)C2CCCC2)n1` (stereo not shown) [Compound 317, N-(1″-(6-(cyclopentyl(hydroxy)methyl)picolinoyl)dispiro[cyclopropane-1,1′-cyclohexane-4′,3″-indolin]-5″- yl)methanesulfonamide], 11 nM.
Under `CS(=O)(=O)Nc1ccc2c(c1)C1(CCCCC1)CN2C(=O)c1cccc(S(=O)(=O)N2CC3CC3C2)c1` (stereo not shown) [Compound 25, N-(1′-(3-((3-azabicyclo[3.1.0]hexan-3-yl)sulfonyl)benzoyl)spiro[cyclohexane-1,3′-indolin]-5′-yl)methanesulfonamide] stands 120 nM; under `CN(c1cccc(C(=O)N2CC3(CCC4(CC4)CC3)c3cc(NS(C)(=O)=O)ccc32)c1)C1CCCC1` [Compound 348, N-(1″-(3-(cyclopentyl(methyl)amino)benzoyl)dispiro[cyclopropane-1,1′-cyclohexane-4′,3″-indolin]-5″- yl)methanesulfonamide], 190 nM.
Compound `CP(=O)(CC1CCC1)c1cccc(C(=O)N2CC3(CCC4(CC4)CC3)c3cc(NS(C)(=O)=O)ccc32)c1` (stereo not shown) [Compound 362] returned an IC50 of 35 nM.
